Read-outs that look alike come from different tables or passages of the source.
Legend:
[1] = test system: tracheas obtained from vitamin A-deficient hamsters; settings: value taken from Newton et al.; read-out: ED50, hamster trachea organ culture assay; cited from earlier work
[2] = test system: tracheas obtained from vitamin A-deficient hamsters; test: Hamster trachea organ culture assay (reversal of squamous metaplasia and keratinization); type: cell-based; settings: for EC50: Mesocricetus auratus, reversal of keratinization, vitamin A-deficient hamster trachea in culture, read-out: ED50, hamster trachea organ culture assay; for Activity in hamster-trachea assay compared with the retinamides of Table II: compared with retinamides in lower part of Table II
Method: Some of these 4-oxoretinoic acid analogues were evaluated in the hamster-trachea organ-culture assay described in Clamon et al., Nature, Vol. 250, pages 64-66, 1974; Sporn et al., Nature, Vol. 263, pages 110-113, 1976; and Newton et al., Cancer Res., Vol. 40, pages 3413-3425, 1980. This bioassay is specific for retinoids and assesses the capacity of retinoids to reverse keratinization in vitamin A-deficient hamster trachea in culture. Therefore, it is a measure of the capacity of a retinoid to control differentiation of epithelial cells, and "it is believed to have significant predictive value for the potential use of a new retinoid for prevention of epithelial cancer" (Newton et al., Cancer Res., Vol. 40, pages 3413-3425, 1980). (See Example 25). Also, data obtained by Newton et al., (Cancer Res., Vol. 40, pages 3413-3425, 1980) in assays of six all-trans or 13-cis retinamides are included in Table II for comparison.
Hamster Trachea Organ Culture Assay
4-Oxoretinoids were evaluated for their capacity to reverse squamous metaplasia and keratinization in organ cultures of tracheas obtained from vitamin A-deficient hamsters. The methods and procedures were those described by Sporn and co-workers (Clamon et al. and Newton et al., loc. cit.).

[3] = test system: F9 Embryonal Carcinoma Cells; test: Induction of differentiation of F9 embryonal carcinoma cells (plasminogen activator release); type: cell-based; settings: Mus musculus, 96 h, by release of plasminogen activator, 4 days, read-out: Differentiation of F9 Embryonal Carcinoma Cells ED50
Method: Induction of differentiation of cancer cells is a potential mode of cancer chemoprevention. […] Elevated release of plasminogen activator by F9 cells in the presence of retinoids is a marker for differentiation. Induction of differentiation of F9 cells by several of the retinoids of this invention was evaluated, and the results are summarized in Table I (Example 24) as values of ED50. All of the tested 4-oxoretionoic acid analogues induce differentiation at low concentrations (ED50 =[…] -10^-10 molar) and, therefore, are very effective inducers of differentiation of mouse F9 embryonal carcinoma cells. […] Under the conditions of this assay, ester derivatives might be hydrolyzed partially to the carboxylic acids.
Assay for Induction of Differentiation of Cancer Cells to Normal Cells
Evaluation of the differentiation potential of 4-oxoretinoids was carried out with an embryonal carcinoma cell line, F9. Elevation of plasminogen activator release by F9 cells in the presence of retinoids is a marker for inducing differentiation into parietal endoderm (Strickland and Mahdavi, loc. cit.; Strickland and Sawey, loc. cit.). F9 cells were grown at a density of 1×10^5 cells/mL in the presence or absence of […], 10^-8, 10^-9, 10^-10, and 10^-11 or molar retinoids for 4 days. Aliquots (20 μL) of the harvest fluid were mixed with 0.13 μM plasminogen, 0.3 mM H-D-Val-Leu-Lys-p-nitroaniline (a synthetic substrate of plasmin), 0.1% Tween 80, and 25 μg of fibrinogen fragments in a final volume of 0.2 mL of Tris-HCl, pH 7.5. After incubation for 4 hours at 25° C., the generation of p-nitroaniline was measured by absorbance at 405 nm. The average absorbencies from duplicate experiments were plotted (semilog plots) versus concentration (molarity). The ED50 values were determined by finding the midpoint between the maximal and minimal absorbance values.
Induction of Differentiation of Cancer Cells
^a ED50 is the molar concentration of the retinoid that causes
50% induction of differentiation of the carcinoma cells as measured by th
release of plasminogen activator.

ornithine decarboxylase = test: Ornithine decarboxylase assay (reduction of TPA-induced ODC activity in mouse skin); type: in vivo; settings: for Ornithine Decarboxylase Activity, Average % of Control Group: TPA-induced ODC, mouse skin, nanomoles of carbon dioxide per milligram of protein per half hour; for ODC activity as % of the ODC activity in the control mice, summary range: TPA-induced, summary of Table III in text
Description: A bioassay in vivo for activity in the prevention of carcinogen-induced cancer is based on the reduction by a retinoid of the amount of ornithine decarboxylase (ODC) induced in mouse skin by the tumor promoter 12-O-tetradecanoylphorbol 13-acetate (TPA). Verma et al. (Cancer Research, Vol. 38, pages 793-801, 1978), reported that "application of the potent tumor-promoting agent 12-O-tetradecanoylphorbol 13-acetate (TPA) to mouse skin leads to a rapid and transient induction of epidermal ornithine decarboxylase activity". They state, further, that "inhibition of this enzyme activity by retinoids may be a simple and rapid in vivo test for assessing the potential prophylactic activity of new synthetic retinoids". All of the tested 4-oxoretinoid analogues reduced TPA-induced ODC activity. The compounds of Examples 2-4, 8, 11, 17, 18, and 20-23 reduced ODC activity to 22-47% of the ODC activity in the control mice and are, therefore, very active in this assay for cancer chemopreventive activity.
Ornithine Decarboxylase Assay
Assays for the reduction by 4-oxoretinoids of ornithine decarboxylase activity induced by 12-O-tetradecanoylphorbol 13-acetate (TPA) were performed by the procedure of Verma et al., Cancer Research, Vol. 38, pages 793-801 (1978).

skin papillomas = test: Mouse antipapilloma assay (DMBA-TPA skin papillomas); type: in vivo; design: Average Number of Skin Papillomas/Mouse as % of No. of Papillomas/Mouse in the DMBA-TPA Control Group of Mice: concentration or dose not given beside the values; settings: for Average Number of Skin Papillomas/Mouse as % of No. of Papillomas/Mouse in the DMBA-TPA Control Group of Mice: DMBA-initiated, TPA-promoted mouse skin; for Reduction of papilloma formation, summary range: range over the six most active retinoids; for Papilloma formation as % of papilloma formation in untreated control mice, summary range: summary of Table IV
Description: Application of the carcinogen DMBA to mouse skin followed by application of the tumor promoter TPA causes the formation of papillomas. Certain retinoids applied to the same area of mouse skin reduce or prevent papilloma formation (e.g. H. Mayer, W. Bollag, R. Hanni, and R. Ruegg, Experientia, Vol 34, pages 1105-1119, 1978; R. K. Boutwell and A. K. Verma, Pure and Applied Chemistry, Vol. 51, pages 857-866, 1979). The antipapilloma assay is a direct test of the capability of a retinoid to prevent tumor formation in vivo. It has been used to select retinoids for clinical development. The tested retinoids reduced papilloma formation to 27-83% of papilloma formation in untreated control mice. […] The number of papillomas in mice treated with either of these six retinoids was 27-40% of the number of papillomas on untreated mice; or, differently expressed, papilloma formation was reduced by 60-73%.
In this assay, tumors are initiated in mice by applying the carcinogen DMBA to the skin of mice and subsequently applying the promoter TPA. The method is that of Verma et al., Cancer Research, Vol. 39, pages 419-425, 1979.

[4] = molar concentration causing 50% induction of differentiation

Row | SMILES | EC50 [1] | EC50 [2] | EC50 [3, 4] | Ornithine Decarboxylase Activity, Average % of Control Group (ornithine decarboxylase) | Average Number of Skin Papillomas/Mouse as % of No. of Papillomas/Mouse in the DMBA-TPA Control Group of Mice (skin papillomas) | Reduction of papilloma formation, summary range (skin papillomas) | Papilloma formation as % of papilloma formation in untreated control mice, summary range (skin papillomas) | ODC activity as % of the ODC activity in the control mice, summary range (ornithine decarboxylase) | Activity in hamster-trachea assay compared with the retinamides of Table II [2] | EC50 ([3]; average of two determinations, 50% induction of differentiation)
1 | CC1=C(/C=C/C(C)=C/C=C/C(C)=C\C(=O)NCCO)C(C)(C)CCC1 [13-Cis-N-(2-hydroxyethyl)-retinamide] | 300 pM |  |  |  |  |  |  |  |  | 
2 | CCNC(=O)\C=C(C)/C=C/C=C(C)/C=C/C1=C(C)CCCC1(C)C [13-Cis-N-ethylretinamide] | 300 pM |  |  |  |  |  |  |  |  | 
3 | COC(=O)/C=C(C)/C=C/C=C(C)/C=C/C1=C(C)C(=O)C(C)CC1(C)C (stereo not shown) [Example 2, Methyl 3-Methyl-4-oxoretinoate] |  | 4000 pM | 2000 pM | 33 % of Control Group | 27% | 60-73% | 27-40% |  |  | 
4 | COC(=O)/C=C(C)/C=C/C=C(C)/C=C/C1=C(C)C(=O)C(CC=Cc2ccccc2)CC1(C)C (stereo not shown) [Example 3, Methyl 3-Cinnamyl-4-oxoretinoate] |  |  |  | 31 % of Control Group |  |  |  |  |  | 
5 | CCC1CC(C)(C)C(/C=C/C(C)=C/C=C/C(C)=C/C(=O)OC)=C(C)C1=O (stereo not shown) [Example 4, Methyl 3-Ethyl-4-oxoretinoate] |  |  |  | 31 % of Control Group | 83% |  |  |  |  | 
6 | C=CCC1CC(C)(C)C(/C=C/C(C)=C/C=C/C(C)=C/C(=O)OC)=C(C)C1=O (stereo not shown) [Example 7, Methyl 4-Oxo-3-(2-propenyl)retinoate] |  |  |  | 56 % of Control Group | 42% |  |  |  |  | 
7 | C#CCC1CC(C)(C)C(/C=C/C(C)=C/C=C/C(C)=C/C(=O)OC)=C(C)C1=O (stereo not shown) [Example 8, Methyl 4-Oxo-3-(2-propynyl)retinoate] |  |  | 1500 pM | 35 % of Control Group | 40% | 60-73% | 27-40% | 22-47 % of the ODC activity in the control mice |  | 
8 | COC(=O)/C=C(C)/C=C/C=C(C)/C=C/C1=C(C)C(=O)C(Cc2ccccc2)CC1(C)C (stereo not shown) [Example 9, Methyl 4-Oxo-3-(phenylmethyl)retinoate] |  | 11000 pM |  | 77 % of Control Group |  |  |  |  |  | 
9 | COC(=O)/C=C(C)/C=C/C=C(C)/C=C/C1=C(C)C(=O)C(C)(C)CC1(C)C [Example 11, Methyl 3,3-Dimethyl-4-oxoretinoate] |  | 300 pM | 900 pM | 22 % of Control Group | 27% | 60-73% | 27-40% | 22-47 % of the ODC activity in the control mice | comparable | 
10 | CC1=C(/C=C/C(C)=C/C=C/C(C)=C/C(=O)O)C(C)(C)CC(C)C1=O (stereo not shown) [Example 17, 3-Methyl-4-oxoretinoic Acid] |  | 2000 pM | 900 pM | 33 % of Control Group | 32% | 60-73% | 27-40% | 22-47 % of the ODC activity in the control mice |  | 
11 | CCC1CC(C)(C)C(/C=C/C(C)=C/C=C/C(C)=C/C(=O)O)=C(C)C1=O (stereo not shown) [Example 18, 3-Ethyl-4Oxoretionoic Acid] |  |  | 5000 pM | 40 % of Control Group | 57% |  |  | 22-47 % of the ODC activity in the control mice |  | 
12 | C=CCC1CC(C)(C)C(/C=C/C(C)=C/C=C/C(C)=C/C(=O)O)=C(C)C1=O (stereo not shown) [Example 19, 4-Oxo-3-(2-propenyl)retinoic Acid] |  |  | 700 pM | 68 % of Control Group | 47% |  |  |  |  | 
13 | C#CCC1CC(C)(C)C(/C=C/C(C)=C/C=C/C(C)=C/C(=O)O)=C(C)C1=O (stereo not shown) [Example 20] |  | 200 pM | 600 pM | 47 % of Control Group | 64% |  |  |  | comparable | 
14 | CC1=C(/C=C/C(C)=C/C=C/C(C)=C/C(=O)O)C(C)(C)CC(Cc2ccccc2)C1=O (stereo not shown) [Example 21] |  | 11000 pM | 800 pM | 42 % of Control Group |  |  |  |  |  | 
15 | CC1=C(/C=C/C(C)=C/C=C/C(C)=C/C(=O)O)C(C)(C)CC(CC=Cc2ccccc2)C1=O (stereo not shown) [Example 22, 3-Cinnamyl-4-oxoretinoic Acid] |  |  | 3500 pM | 23 % of Control Group | 39% | 60-73% | 27-40% |  |  | 
16 | CC1=C(/C=C/C(C)=C/C=C/C(C)=C/C(=O)O)C(C)(C)CC(C)(C)C1=O [Example 23, 3.3-Dimethyl-4-Oxoretinoic Acid] |  |  |  | 26 % of Control Group | 27% | 60-73% | 27-40% |  |  | 230 pM

Reference: US5124083A, “3-substituted and 3,3-disubstituted 4-oxoretinoic acids and their esters” (Southern Research Institute, priority 1990, dated 1992)
